Source: paper PMC6274262, “Synthesis of Novel Symmetrical 1,4-Disubstituted 1,2,3-Bistriazole Derivatives via ‘Click Chemistry’ and Their Biological Evaluation” (Molecules, 2016)

How the values were obtained:
[1] = DPPH radical scavenging assay; settings: 0.1 mM methanolic DPPH, 30 min in the dark, 517 nm; mean ± S.D., triplicate
Description: Some 1,2,3-triazole compounds are known to act either as inhibitors of free radical production or as radical scavengers. Therefore, the potential antioxidant property of the new 1,2,3-trizole compounds was evaluated by determining their DPPH and SOD radical scavenging ability. DPPH is a stable free radical that accepts an electron or hydrogen radical to become a stable species. Due to its odd electron, DPPH gives a strong absorption band at 517 nm. Antioxidants are suitable reducing agents and neutralize the free radicals by pairing the DPPH odd electron with a hydrogen atom, and the DPPH solution turns yellow, observed as the decrease in absorbance at 517 nm.
The compounds were tested for in vitro antioxidant activities by the 2,2-diphenyl-1-picrylhydrazyl (DPPH) free radical scavenging assay method. The total volume of the assay mixtures containing methanolic DPPH solution (0.1 mM) and different concentrations of samples was 1 mL. After incubation in the dark at room temperature for 30 min., absorbance of the samples (Asample) was measured at 517 nm. Assay mixture without compound was used as control (control absorbance, Acontrol). All experiments were carried out in triplicate and results were expressed as the mean ±standard deviation (S.D.). Butylatedhydroxyanisole (BHA) were used as the reference compound. Free radical scavenging effect was calculated using Equation (1).

[2] = Superoxide radical scavenging assay (NBT photo reduction method); settings: pH 7.8, 30 °C, 10 min, 560 nm, mean ± S.D., triplicate
Description: Superoxide scavenging activity of the compounds and reference were tested in a non-enzymatic superoxide radical (O2^−•) generation assay using a modified spectrophotometrical nitro blue tetrazolium (NBT) photo reduction method. The total volume of the assay mixtures containing riboflavin (2 μM), methionine (13 mM), NBT ([…]), EDTA (0.1 mM), and the test samples (50 mM phosphate buffer, pH = 7.8) was 1 mL. After illuminating with a fluorescent lamp at 30 °C for 10 min., the absorbance of the samples (Asample) was measured at 560 nm. Assay mixture without the compound was used as control (control absorbance, Acontrol). All experiments were carried out in triplicate and results were expressed as the mean ± standard deviation (S.D.). Free O2^−• radical scavenging effect was calculated using Equation (1).

[3] = molecular target: T1, Electric eel acetyl-cholinesterase enzyme (AchE, Type-VI-S; EC 3.1.1.7) (Electrophorus electricus, UniProt O42275); assay: biochemical; settings: mean ± S.D. of three independent experiments; Tris-HCl pH 8.00, 412 nm
T1 construct: purchased Sigma-Aldrich Type-VI-S
T1 sequence (O42275 24-633): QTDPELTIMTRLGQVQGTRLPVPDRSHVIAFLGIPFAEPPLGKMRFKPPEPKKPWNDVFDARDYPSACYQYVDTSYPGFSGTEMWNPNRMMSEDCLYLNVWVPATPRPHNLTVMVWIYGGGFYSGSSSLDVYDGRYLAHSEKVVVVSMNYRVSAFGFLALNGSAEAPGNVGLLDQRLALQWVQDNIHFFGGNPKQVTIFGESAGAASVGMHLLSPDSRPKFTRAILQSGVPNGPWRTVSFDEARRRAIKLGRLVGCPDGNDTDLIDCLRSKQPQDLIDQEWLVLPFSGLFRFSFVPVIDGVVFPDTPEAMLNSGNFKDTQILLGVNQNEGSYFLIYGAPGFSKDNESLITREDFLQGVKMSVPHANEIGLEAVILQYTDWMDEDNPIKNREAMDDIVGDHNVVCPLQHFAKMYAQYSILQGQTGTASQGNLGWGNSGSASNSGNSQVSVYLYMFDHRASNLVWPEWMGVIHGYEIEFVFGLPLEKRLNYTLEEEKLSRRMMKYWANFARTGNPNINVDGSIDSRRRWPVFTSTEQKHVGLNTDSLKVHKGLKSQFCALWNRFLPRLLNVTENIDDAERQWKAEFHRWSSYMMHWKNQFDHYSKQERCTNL
Description: Firstly, all of the compounds stock solution in DMF (1 × 10^−3 M) were prepared and then five different concentrations were prepared from stock solution in buffer (Tris-HCI pH 8.00) for experiments. Briefly 50 µL of 50 mM Tris-HCl buffer (pH 8.00), 125 µL of 3 mM DTNB (in buffer), 25 µL of 0.2 U/mL AChE and 25 µL of sample dissolved in buffer and incubated for 15 min. at 25 °C. Fifteen minutes later, 25 µL of 15 mM acetyl thiocholine iodide were added and incubated 5 min. at room temperature. The reaction was initiated by the addition of acetylcholine iodide. The hydrolysis of this substrate was monitored by the formation of the yellow 5-thio-2-nitrobenzoate anion as a result of the reaction DTNB with thiocholine, catalized by enzyme at a wave length of 412 nm using a 96-well microplate reader (Multiskan Go UV-spectrophotometer, Thermo Fisher Scientific Oy Ratastie 2, Vantaa, Finland).
Inhibition of AChE was calculated by the comparison of reaction rates of the samples relative to the blank sample (DMF in phosphate buffer pH = 8) using the Equation (1) where Acontrol is the activity of enzyme without test sample and Asample is the activity of enzyme with test sample: (1) Scavenging effects (%)=[(Acontrol−Asample)/Acontrol]×100
The experiments were carried out in triplicate and IC50 values were examined.

[4] = tested on: C. albicans ATCC 60193; assay: Agar-well diffusion antimicrobial screening; type: cell-based, Candida albicans

Structure (SMILES) | DPPH IC50 [1] | SOD IC50 [2] | IC50 [3] | Inhibition Zone Ca [4]
COc1ccc(O)c(C(C)(C)C)c1 [BHA, Butylatedhydroxyanisole, reference compound] | 98.56 (±0.08) µg/mL |  |  | 
CC(=O)c1ccc(OCc2cn(CCCn3cc(COc4ccc(C(C)=O)cc4)nn3)nn2)cc1 [Compound 2a, 1,1′-((((Propane-1,3-diylbis(1H-1,2,3-triazole-1,4-diyl))bis(methylene))bis(oxy))bis(4,1-phenylene))bis(ethan-1-one)] | 155.49 (±0.08) µg/mL | 45.12 (±0.04) µg/mL | 64.7 µM | 
CC(=O)c1ccc(OCc2cn(CCCCn3cc(COc4ccc(C(C)=O)cc4)nn3)nn2)cc1 [Compound 2b, 1,1′-((((Butane-1,4-diylbis(1H-1,2,3-triazole-1,4-diyl))bis(methylene))bis(oxy))bis(4,1-phenylene))bis(ethan-1-one)] | 158.72 (±0.05) µg/mL | 107.54 (±0.07) µg/mL | 52.3 µM | 
CC(=O)c1ccc(OCc2cn(CCCCCn3cc(COc4ccc(C(C)=O)cc4)nn3)nn2)cc1 [Compound 2c, 1,1′-((((Pentane-1,5-diylbis(1H-1,2,3-triazole-1,4-diyl))bis(methylene))bis(oxy))bis(4,1-phenylene))bis(ethan-1-one)] | 175.65 (±0.06) µg/mL | 147.36 (±0.05) µg/mL | 67 µM | 6 mm
CC(=O)c1ccc(OCc2cn(CCCCCCn3cc(COc4ccc(C(C)=O)cc4)nn3)nn2)cc1 [Compound 2d, 1,1′-((((Hexane-1,6-diylbis(1H-1,2,3-triazole-1,4-diyl))bis(methylene))bis(oxy))bis(4,1-phenylene))bis(ethan-1-one)] | 152.84 (±0.05) µg/mL | 154.79 (±0.06) µg/mL | 62.4 µM | 6 mm
CC(=O)c1ccc(OCc2cn(CCCCCCCCn3cc(COc4ccc(C(C)=O)cc4)nn3)nn2)cc1 [Compound 2e, 1,1′-((((Octane-1,8-diylbis(1H-1,2,3-triazole-1,4-diyl))bis(methylene))bis(oxy))bis(4,1-phenylene))bis(ethan-1-one)] | 222.16 (±0.07) µg/mL | 131.43 (±0.06) µg/mL | 66.4 µM | 
CC(=O)c1ccc(OCc2cn(CCCCCCCCCCn3cc(COc4ccc(C(C)=O)cc4)nn3)nn2)cc1 [Compound 2f, 1,1′-((((Decane-1,10-diylbis(1H-1,2,3-triazole-1,4-diyl))bis(methylene))bis(oxy))bis(4,1-phenylene))bis-(ethan-1-one)] | 167.51 (±0.05) µg/mL | 88.15 (±0.06) µg/mL | 50.8 µM | 
COc1cc(C(C)=O)ccc1OCc1cn(CCCn2cc(COc3ccc(C(C)=O)cc3OC)nn2)nn1 [Compound 3a] | 141.57 (±0.08) µg/mL | 120.53 (±0.04) µg/mL | 63.3 µM | 6 mm
COc1cc(C(C)=O)ccc1OCc1cn(CCCCn2cc(COc3ccc(C(C)=O)cc3OC)nn2)nn1 [Compound 3b, 1-(4-((1-(4-(4-((4-Acetyl-2-methoxyphenoxy)methyl)-1H-1,2,3-triazol-1-yl)butyl)-1H-1,2,3-triazol-4-yl)-methoxy)-2-methoxyphenyl)ethan-1-one] | 113.63 (±0.05) µg/mL | 51.37 (±0.07) µg/mL | 57 µM | 
COc1cc(C(C)=O)ccc1OCc1cn(CCCCCn2cc(COc3ccc(C(C)=O)cc3OC)nn2)nn1 [Compound 3c] | 188.45 (±0.11) µg/mL | 284.10 (±0.07) µg/mL | 75.7 µM | 
COc1cc(C(C)=O)ccc1OCc1cn(CCCCCCCCCCn2cc(COc3ccc(C(C)=O)cc3OC)nn2)nn1 [Compound 3f] | 207.57 (±0.09) µg/mL | 98.35 (±0.06) µg/mL | 78.6 µM | 
O=Cc1ccc(OCc2cn(CCCn3cc(COc4ccc(C=O)cc4)nn3)nn2)cc1 [Compound 4a, 4,4′-(((Propane-1,3-diylbis(1H-1,2,3-triazole-1,4-diyl))bis(methylene))bis(oxy))dibenzaldehyde] | 192.02 (±0.12) µg/mL | 55.67 (±0.08) µg/mL | 62.8 µM | 
O=Cc1ccc(OCc2cn(CCCCn3cc(COc4ccc(C=O)cc4)nn3)nn2)cc1 [Compound 4b, 4,4′-(((Butane-1,4-diylbis(1H-1,2,3-triazole-1,4-diyl))bis(methylene))bis(oxy))dibenzaldehyde] | 125.05 (±0.08) µg/mL | 121.74 (±0.08) µg/mL | 74.1 µM | 6 mm
O=Cc1ccc(OCc2cn(CCCCCn3cc(COc4ccc(C=O)cc4)nn3)nn2)cc1 [Compound 4c, 4,4′-(((Pentane-1,5-diylbis(1H-1,2,3-triazole-1,4-diyl))bis(methylene))bis(oxy))dibenzaldehyde] | 227.38 (±0.07) µg/mL | 60.32 (±0.07) µg/mL | 83.4 µM | 6 mm
O=Cc1ccc(OCc2cn(CCCCCCn3cc(COc4ccc(C=O)cc4)nn3)nn2)cc1 [Compound 4d, 4,4′-(((Hexane-1,6-diylbis(1H-1,2,3-triazole-1,4-diyl))bis(methylene))bis(oxy))dibenzaldehyde] | 204.31 (±0.11) µg/mL | 82.77 (±0.11) µg/mL | 58.5 µM | 
O=Cc1ccc(OCc2cn(CCCCCCCCCCn3cc(COc4ccc(C=O)cc4)nn3)nn2)cc1 [Compound 4f, 4,4′-(((Decane-1,10-diylbis(1H-1,2,3-triazole-1,4-diyl))bis(methylene))bis(oxy))dibenzaldehyde] | 210.33 (±0.08) µg/mL | 93.47 (±0.09) µg/mL | 62.5 µM | 
COc1cc(C=O)ccc1OCc1cn(CCCn2cc(COc3ccc(C=O)cc3OC)nn2)nn1 [Compound 5a] | 150.03 (±0.08) µg/mL | 126.2 (±0.07) µg/mL | 74.7 µM | 
COc1cc(C=O)ccc1OCc1cn(CCCCn2cc(COc3ccc(C=O)cc3OC)nn2)nn1 [Compound 5b] | 154.51 (±0.07) µg/mL | 109.17 (±0.10) µg/mL | 61.8 µM | 
COc1cc(C=O)ccc1OCc1cn(CCCCCn2cc(COc3ccc(C=O)cc3OC)nn2)nn1 [Compound 5c] | 192.46 (±0.11) µg/mL | 145.68 (±0.11) µg/mL | 69.4 µM | 
COc1cc(C=O)ccc1OCc1cn(CCCCCCn2cc(COc3ccc(C=O)cc3OC)nn2)nn1 [Compound 5d] | 191.39 (±0.08) µg/mL | 157.14 (±0.07) µg/mL | 70.3 µM | 
COc1cc(C=O)ccc1OCc1cn(CCCCCCCCn2cc(COc3ccc(C=O)cc3OC)nn2)nn1 [Compound 5e] | 221.57 (±0.06) µg/mL | 188.84 (±0.08) µg/mL | 61.8 µM | 
